Data reported in US7297817B2, “Thio-substituted arylmethanesulfinyl derivatives” (Cephalon France, priority 2004, dated 2007).

What was measured:
[1] = system: Wistar rats; test: Evaluation of Wake Promoting Activity in Rats (EEG/EMG sleep/wake scoring); type: in vivo, rat; settings: i.p. route, 100 mg/kg; for Mean AUC0–3h, test compound: first 3 hrs following dosing, n = 8 rats; for wakefulness compared to vehicle-treated animals: p<0.05 vs control groups
Description: The methodology utilized for evaluating wake promoting activity of test compounds is based on that described by Edgar and Seidel, Journal of Pharmacology and Experimental Therapeutics, 283:757-769, 1997, and incorporated herein in its entirety by reference.
Animal Surgery. Adult, male Wistar rats (275-320 g from Charles River Laboratories, Wilmington, Mass.) were anesthetized (Nembutal, 45 mg/kg, ip.) and surgically prepared with implants for recording of chronic EEG (encephalographic) and EMG (electromyographic) recording. The EEG implants were made from commercially available components (Plastics One, Roanoke, Va.). EEG signals were recorded from stainless steel screw electrodes: 2 frontal (+3.0 mm AP from bregma, ±2.0 mm ML), and 2 occipital (−4.0 mm AP from bregma, ±2.0 mm ML). Two Teflon-coated stainless steel wires were positioned under the nuchal trapezoid muscles for EMG recording. All electrode leads were inserted into a connector pedestal and the pedestal affixed to the skull by application dental acrylic. Antibiotic was administered post surgically and antibiotic cream was applied to the wound edges to prevent infection. At least one week elapsed between surgery and recording.
Recording environment. Postsurgically, rats were housed in pairs in an isolated room. Food and water were available ad libitum, ambient temperature was 21° C., and humidity was 55%. At least 24 hrs prior to recording, they were placed in Nalgene containers (31×31×31 cm) with a wire-grid top, and entry to the room was prohibited during the day of recording except for dosing. The containers were placed on a rack with two shelves, 4 containers per shelf. Fluorescent overhead room lights were set to a 24 hr. light/dark cycle (on at 7 AM, off at 7 PM). Light levels inside the containers were 38 and 25 lux for the top and bottom shelves respectively. Background white-noise (68 db inside the containers) was present in the room to mask ambient sounds.
Data acquisition. EEG and EMG signals were led via cables to a commutator (Plastics One) and then to pre-amplifiers (model 1700, A-M Systems, Carlsborg, Wash.). EEG and EMG signals were amplified (10K and 1K respectively) and bandpass filtered between 0.3 and 500 Hz for EEG and between 10 and 500 Hz for EMG. […] On the day of dosing, data was recorded for 6 to 10 hours beginning at 11 AM.
Drug administration and study design. Compounds were evaluated on groups of from 4 to 8 rats carried out over one or two separate test sessions. […]
Sleep/wake scoring. Sleep and wake activity were determined manually using ICELUS software. […]

| SMILES | melting point [°C] | Mean AUC0–3h, test compound [1] | wakefulness compared to vehicle-treated animals [1] |
| --- | --- | --- | --- |
| NC(=O)C[S+]([O-])Cc1ccccc1COc1ccccc1 (centres unmarked) | 153 to 154 |  |  |
| CC(=O)N1CCN(C(=O)C[S+]([O-])Cc2ccc(Oc3ccc(Cl)c(Cl)c3)cc2)CC1 (centres unmarked) [Example 22, 1-(4-Acetyl-piperazin-1-yl)-2-[4-(3,4-dichloro-phenoxy)-phenylmethanesulfinyl]-ethanone] |  | 162.7 % of waiking time × hr | significantly greated wakefulness |
| NC(=O)C[S+]([O-])Cc1ccccc1NC(=O)c1ccc(Cl)cc1 (centres unmarked) [Example 113, N-(2-carbamoylmethanesulfinylmethyl-phenyl)-4-chloro-benzamide] |  | 99.0 % of waiking time × hr | significantly greated wakefulness |
